Data: the CheMixHub viscosity set

Assay: xn = mol fraction of the nth substance listed

Cc1cccc(C)c1 + CCOC(C)=O
viscosity [mPa·s], 101 kPa
Details	298.15 K	308.15 K
x2 = 0.048	0.568	0.515
x2 = 0.1498	0.541	0.492
x2 = 0.2498	0.518	0.472
x2 = 0.3493	0.498	0.454
x2 = 0.4469	0.481	0.439
x2 = 0.4972	0.473	0.432
x2 = 0.5494	0.466	0.425
x2 = 0.6495	0.454	0.414
x2 = 0.7511	0.444	0.404
x2 = 0.8509	0.436	0.396
x2 = 0.9461	0.43	0.39

O=S1(=O)CCCC1 + CCOC(C)=O
303.15 K, 101 kPa
Details	viscosity [mPa·s]
x1 = 0.8548	5.285
x1 = 0.9799	9.205

Nc1ccccc1Cl + CCOCCO
303.15 K, 101 kPa
Details	viscosity [mPa·s]
x1 = 0.0966	2.088
x1 = 0.1696	2.266
x1 = 0.2725	2.507
x1 = 0.3613	2.709
x1 = 0.4791	2.967
x1 = 0.5648	3.147
x1 = 0.68	3.372
x1 = 0.7804	3.544
x1 = 0.8884	3.696

O=S1(=O)CCCC1 + CCc1ccccc1
viscosity [mPa·s]
Details	101 kPa	101.3 kPa
303.15 K, x2 = 0.9106	0.7155	0.7155
313.15 K, x2 = 0.7254	0.9235	–
323.15 K, x2 = 0.7254	0.8125	0.8125
323.15 K, x2 = 0.8194	0.6653	0.6653

CCCCn1cc[n+](C)c1.F[B-](F)(F)F + CN1CCCC1=O
101 kPa
Details	viscosity [mPa·s]
298.15 K, x1 = 0.2779	9.05
298.15 K, x1 = 0.957	86.3
303.15 K, x1 = 0.2779	7.82
303.15 K, x1 = 0.3423	9.48
308.15 K, x1 = 0.4657	9.19

CCCCCCCCCCCCCCCCCC(=O)O + CN1CCC[C@H]1c1cccnc1
viscosity [mPa·s], 101 kPa
Details	x2 = 0.3991	x2 = 0.4952	x2 = 0.6034	x2 = 0.6986	x2 = 0.7961	x2 = 0.8973
298.15 K	–	–	–	21.18	14.22	7.79
323.15 K	26.04	18.6	12.3	8.571	6.045	4.003

CCCCn1cc[n+](C)c1.F[B-](F)(F)F + CN(C)C=O
101.33 kPa
Details	viscosity [mPa·s]
293.15 K, x1 = 0.24	8.99
293.15 K, x1 = 0.83	76.67
298.15 K, x1 = 0.335	6.371
298.15 K, x1 = 0.34	8.92
298.15 K, x1 = 0.3986	7.783
298.15 K, x1 = 0.8976	78.41
298.15 K, x1 = 0.94	88.43
303.15 K, x1 = 0.43	8.05
303.15 K, x1 = 0.94	74.19
308.15 K, x1 = 0.55	9.58
